Reference: ChEMBL document CHEMBL1909046, “DrugMatrix in vitro pharmacology data”

Columns and labels:
Thromboxane-A synthase = target: T1, Thromboxane-A synthase (Homo sapiens, UniProt P24557); test: biochemical; format: tissue-based, Platelet; conditions: platelet;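 note: enzyme inhibition assay with PGH2 supplied as substrate; in other assays of this panel Not Active means under 50% inhibition at 10 µM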
T1 sequence (P24557 whole entry): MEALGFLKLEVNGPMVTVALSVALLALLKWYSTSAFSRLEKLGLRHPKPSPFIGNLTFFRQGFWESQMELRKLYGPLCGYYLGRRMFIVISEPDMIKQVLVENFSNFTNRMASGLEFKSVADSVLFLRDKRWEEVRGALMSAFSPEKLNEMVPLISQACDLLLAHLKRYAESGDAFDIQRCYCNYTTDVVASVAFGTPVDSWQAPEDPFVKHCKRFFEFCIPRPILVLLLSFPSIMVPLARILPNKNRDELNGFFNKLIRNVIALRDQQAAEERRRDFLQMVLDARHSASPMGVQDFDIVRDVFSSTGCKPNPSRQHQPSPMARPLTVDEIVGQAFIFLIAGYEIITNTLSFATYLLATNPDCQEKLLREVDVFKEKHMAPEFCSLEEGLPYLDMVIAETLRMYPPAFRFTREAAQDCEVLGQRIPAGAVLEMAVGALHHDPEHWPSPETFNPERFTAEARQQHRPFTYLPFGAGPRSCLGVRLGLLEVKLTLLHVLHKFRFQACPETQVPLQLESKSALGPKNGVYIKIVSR

[1] = target: T2, 5-hydroxytryptamine receptor 1A (Rattus norvegicus, UniProt P19327); format: cell membranes, CHO-K1, Membrane; note: in other assays of this panel Not Active means under 50% inhibition at 10 µM
T2 sequence (P19327 whole entry): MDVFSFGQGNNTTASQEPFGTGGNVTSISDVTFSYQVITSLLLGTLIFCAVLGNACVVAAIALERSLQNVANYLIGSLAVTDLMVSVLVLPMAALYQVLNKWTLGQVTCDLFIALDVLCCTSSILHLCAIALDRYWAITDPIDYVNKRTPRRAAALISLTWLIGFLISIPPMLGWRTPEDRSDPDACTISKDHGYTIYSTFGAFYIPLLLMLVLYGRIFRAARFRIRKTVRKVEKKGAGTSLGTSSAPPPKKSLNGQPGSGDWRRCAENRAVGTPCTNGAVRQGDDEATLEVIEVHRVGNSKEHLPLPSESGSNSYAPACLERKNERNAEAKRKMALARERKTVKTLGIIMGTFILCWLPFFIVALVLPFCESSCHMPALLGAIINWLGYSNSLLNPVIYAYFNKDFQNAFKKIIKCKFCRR

[2] = target: C-C chemokine receptor type 5 (Homo sapiens, UniProt P51681); format: cell membranes, Membrane; conditions: hek293; note: in other assays of this panel Not Active means under 50% inhibition at 10 µM
[3] = DRUGMATRIX: Glutamate, AMPA radioligand binding (ligand: [3H] AMPA); format: cell membranes, Rattus norvegicus, Wistar, Cerebral cortex, Membrane; conditions: Not Active = under 50% inhibition at 10 µM
[4] = DRUGMATRIX: Potassium Channel [KATP] radioligand binding (ligand: [3H] Glyburide); format: cell membranes, Membrane; conditions: hit-t15; Not Active = under 50% inhibition at 10 µM
Progesterone receptor = target: T3, Progesterone receptor (Bos taurus, UniProt Q690N0); test: DRUGMATRIX: Progesterone radioligand binding (ligand: [3H] R-5020); format: tissue-based, Uterus; conditions: Not Active = under 50% inhibition at 10 µM
T3 sequence (Q690N0 whole entry): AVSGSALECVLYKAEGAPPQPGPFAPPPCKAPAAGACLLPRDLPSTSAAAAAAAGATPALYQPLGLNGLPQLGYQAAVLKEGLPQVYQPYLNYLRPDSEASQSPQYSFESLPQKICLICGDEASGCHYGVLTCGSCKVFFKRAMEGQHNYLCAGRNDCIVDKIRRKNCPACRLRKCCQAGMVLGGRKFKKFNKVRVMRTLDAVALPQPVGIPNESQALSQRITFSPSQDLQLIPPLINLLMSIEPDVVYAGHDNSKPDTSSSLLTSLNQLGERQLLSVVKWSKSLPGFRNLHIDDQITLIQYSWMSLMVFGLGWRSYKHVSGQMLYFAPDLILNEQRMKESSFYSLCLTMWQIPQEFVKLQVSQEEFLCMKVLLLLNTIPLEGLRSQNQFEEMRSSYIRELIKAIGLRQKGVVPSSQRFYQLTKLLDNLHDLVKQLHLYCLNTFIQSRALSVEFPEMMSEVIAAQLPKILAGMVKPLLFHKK

Sequence of C-C chemokine receptor type 5 (P51681 whole entry): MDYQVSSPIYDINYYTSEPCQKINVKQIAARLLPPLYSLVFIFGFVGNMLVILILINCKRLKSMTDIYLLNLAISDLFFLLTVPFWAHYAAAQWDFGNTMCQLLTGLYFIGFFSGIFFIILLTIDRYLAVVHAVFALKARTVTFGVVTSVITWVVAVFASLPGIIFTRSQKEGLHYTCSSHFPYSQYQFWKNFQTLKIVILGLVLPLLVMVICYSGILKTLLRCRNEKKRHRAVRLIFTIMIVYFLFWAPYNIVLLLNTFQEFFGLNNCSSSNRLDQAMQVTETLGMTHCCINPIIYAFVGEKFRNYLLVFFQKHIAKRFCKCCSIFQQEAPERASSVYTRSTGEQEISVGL

| SMILES | IC50 (Thromboxane-A synthase) | IC50 ([1]; cho-k1) | IC50 [2] | IC50 [3] | Ki [3] | IC50 [4] | Ki [4] | IC50 (Progesterone receptor) | IC50 ([1]; read-out: IC50) | Ki ([1]; read-out: Ki) | IC50 (Progesterone receptor; read-out: IC50) | Ki (Progesterone receptor; read-out: Ki) |
| --- | --- | --- | --- | --- | --- | --- | --- | --- | --- | --- | --- | --- |
| Cn1c(=O)c2c(ncn2CC(O)CO)n(C)c1=O (stereo not given) [DYPHYLLINE] | Not Active | Not Active | Not Active | Not Active | Not Active | Not Active | Not Active | Not Active |  |  |  |  |
| O=C(O)c1cccnc1Nc1cccc(C(F)(F)F)c1 [NIFLUMIC ACID] | Not Active | Not Active | Not Active | Not Active | Not Active | Not Active | Not Active | Not Active |  |  |  |  |
| CC(C)c1cccc(C(C)C)c1O [PROPOFOL] | Not Active | Not Active | Not Active | Not Active | Not Active | Not Active | Not Active | Not Active |  |  |  |  |
| COC(=O)Nc1nc2ccc(C(=O)c3cccs3)cc2[nH]1 [NOCODAZOLE] | Not Active | Not Active | Not Active | Not Active | Not Active | Not Active | Not Active | Not Active |  |  |  |  |
| N=C(N)NC(=O)Cc1c(Cl)cccc1Cl [GUANFACINE] | Not Active | Not Active | Not Active | Not Active | Not Active | Not Active | Not Active | Not Active |  |  |  |  |
| CC(C)NCC(O)COc1cccc2[nH]ccc12 (stereo not given) [PINDOLOL] | Not Active |  | Not Active | Not Active | Not Active | Not Active | Not Active |  | 48 nM | 27 nM |  |  |
| CC(=O)[C@@]1(O)CC[C@H]2[C@@H]3CCC4=CC(=O)CC[C@]4(C)[C@H]3CC[C@@]21C [HYDROXYPROGESTERONE] | Not Active | Not Active | Not Active | Not Active | Not Active | Not Active | Not Active |  |  |  | 12 nM | 1.55 nM |
| CC(=O)O[C@H]1C(=O)[C@@]2(C)[C@H]([C@H](OC(=O)c3ccccc3)[C@]3(O)C[C@H](OC(=O)[C@H](O)[C@@H](NC(=O)c4ccccc4)c4ccccc4)C(C)=C1C3(C)C)[C@]1(OC(C)=O)CO[C@@H]1C[C@@H]2O [PACLITAXEL] | Not Active | Not Active | Not Active | Not Active | Not Active | Not Active | Not Active | Not Active |  |  |  |  |
| CCCOc1ccc(C(=O)OCCN(CC)CC)cc1N [PROPARACAINE] | Not Active | Not Active | Not Active | Not Active | Not Active | Not Active | Not Active | Not Active |  |  |  |  |
| O=C(N/N=C/c1ccc([N+](=O)[O-])o1)c1cc([N+](=O)[O-])cc([N+](=O)[O-])c1O [NIFURSOL] | Not Active | Not Active | Not Active | Not Active | Not Active | Not Active | Not Active | Not Active |  |  |  |  |
| CC(=O)Oc1ccc(C(c2ccc(OC(C)=O)cc2)c2ccccn2)cc1 [BISACODYL] | Not Active | Not Active | Not Active | Not Active | Not Active | Not Active | Not Active | Not Active |  |  |  |  |
| CN(C)[C@@H]1C(O)=C(C(N)=O)C(=O)[C@@]2(O)C(O)=C3C(=O)c4c(O)ccc(Cl)c4[C@@](C)(O)[C@H]3C[C@@H]12 [CHLORTETRACYCLINE] | Not Active | Not Active | Not Active | Not Active | Not Active | Not Active | Not Active | Not Active |  |  |  |  |
| Nc1ccn([C@@H]2O[C@H](CO)[C@@H](O)[C@@H]2O)c(=O)n1 [CYTARABINE] | Not Active | Not Active | Not Active | Not Active | Not Active | Not Active | Not Active | Not Active |  |  |  |  |
